Marks after values point to notes of the source that are not given here. No end group written: not given here.

The MBC is the lowest tested concentration that kills the bacteria rather than only halting them. As a reminder, the viability is the share of living cells, or the viability signal relative to a control. A high value points to better survival.

In data set [1] the test system is S. aureus ATCC 33591. It is filed as cell-based, Staphylococcus aureus. The note with it: pH 7.4.
For data set [2], the system named is P. aeruginosa ATCC 27853. The note with it: ATCC 27853, 24 h, pH 7.4.
Data set [3] deals with S. epidermidis ATCC 35984. The note with it: ATCC 35984, 24 h, pH 7.4.
Data set [4] deals with human red blood cells (RBCs). Conditions: concentrations up to 96 μM, 1 h, 37°C.
Experimental: Hemolytic activity of TB and its analogs was tested against human red blood cells (RBCs) as previously described (Tavanti et al., [2011]). Briefly, peripheral blood obtained from healthy donors was centrifuged (1,000 × g for 10 min, 4°C) and washed three times with PBS (Euroclone, Milan, Italy). A suspension of RBCs (4%, v/v) was mixed with various concentrations of the peptides (from 12 to 96 μM) into a round-bottom polystyrene 96-well microplate (Corning Costar). RBCs suspended in PBS alone were used as negative control (0% hemolysis), while cells lysed with 0.1% Triton X-100 were taken as positive control (100% hemolysis). The microplate was incubated for 1 h at 37°C and then centrifuged at 1,000 × g for 20 min, 4°C. Supernatants were transferred to a new plate and the optical density at 450 nm (OD450) was measured by means of a microplate reader. The hemolytic activity was quantified according to the following formula: hemolysis (%) = [(OD peptide – OD negative control)/(OD positive control – OD negative control)] × 100.
The hemolytic activity was evaluated by the spectrophotometric determination of hemoglobin released from erythrocytes. PBS (0% hemolysis) and Triton X-100 (100% hemolysis) were used as controls. Hemolysis values ≤ 10% (dashed line) are considered to be non-hemolytic (Amin and Dannenfelser, [2006]). […]
Data set [5] deals with preformed biofilms of S. aureus ATCC 33591. In words: Biofilm treatment assay on preformed (24-h old) biofilms, CFU counting, alone and with EDTA. The data set is classed as cell-based, Staphylococcus aureus. The note with it: concentrations up to 120 μM, CFU counting. As to the method:
The activity of TB, TB_L1FK, and TB_KKG6A against preformed (24-h old) biofilms of S. aureus and P. aeruginosa was also investigated. Briefly, biofilms were allowed to form for 24 h in flat-bottom 96-well microplates in the absence of antimicrobial compounds. Established biofilms were then washed three times with PBS in order to remove non-adherent cells and incubated in fresh BPM with different concentrations of the three peptides (from 15 to 120 μM). After 24 h of incubation, the viability of biofilm-associated cells was evaluated by CFU counting. For this purpose, biofilms were washed three times with PBS and bacterial cells were detached from the surface of the wells with a pipette tip, vigorously vortexed and plated in serial dilutions on TSA.
TB_L1FK and TB_KKG6A were combined with EDTA in order to enhance their activity against preformed biofilms of S. aureus and P. aeruginosa. […] Following incubation, the antibiofilm effect was evaluated in terms of number of biofilm-associated viable cells as previously described.
Figure 4 Activity of TB_L1FK and TB_KKG6A, used alone and in combination with EDTA, against preformed (24-h old) biofilms of S. aureus ATCC 33591 (A,B) and P. aeruginosa ATCC 27853 (C,D). The antibiofilm activity of the peptides, EDTA and the peptide-EDTA combinations was evaluated by CFU counting after 24 h of incubation. […]

The test system of data set [6] is P. aeruginosa ATCC 27853 biofilm formation.
The nature of data set [7]: in vitro. The note with it: human.
In data set [8] the test system is K. pneumoniae ATCC BAA-1706. Conditions: ATCC BAA-1706, 24 h, pH 7.4.
Data set [9] has as its system S. aureus ATCC 33591. The note with it: ATCC 33591, 24 h, pH 7.4.
The nature of data set [10]: in vitro. Conditions: human. The source holds these as a separate data set.
In data set [11] the test system is P. aeruginosa ATCC 27853. It is filed as cell-based, Pseudomonas aeruginosa. The note with it: pH 7.4.

With LLPIVGNLLKSLL-NH2 [TB, Temporin 1Tb], the “Time to bactericidal effect (reduction of at least 3 Log10 in viable bacteria)” value in data set [1] is “approximately 90 min”. Further, the minimal bactericidal concentration (MBC) in [2] is 48 µM; in data set [3], 6 µM; in data set [8], 48 µM; in data set [9], 12^a μM. The Hemolytic effect result in [4] is listed as “no hemolytic effect”. Also, the “Antibiofilm activity on preformed biofilms” value in data set [5] is “did not exert a considerable antibiofilm activity”. Moreover, the “Inhibitory activity on forming biofilms” value in data set [6] is “no inhibitory activity”. The viability in data set [7] and in [10] was ~90% each time. In data set [11], the “Time to bactericidal effect” value is 15 min.

For the origin of these results see paper PMC5387044, “Analogs of the Frog-skin Antimicrobial Peptide Temporin 1Tb Exhibit a Wider Spectrum of Activity and a Stronger Antibiofilm Potential as Compared to the Parental Peptide” (Frontiers in Chemistry, 2017).
